# From patent US10150760B2, “Compounds for use in preparing heterocyclic triazole agonists of the APJ receptor” (AMGEN INC., priority 2016, dated 2018)
# Molecular target: human APJ receptor (Homo sapiens (Human), UniProt P35414)
# Assay: [35S]GTPγS binding assay on membranes from CHO cells stably expressing human APJ receptor
# Format: biochemical
# Conditions: read-out: Activity hAPJ SPA EC50 IP
# Method in brief: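 Agonist-driven [35S]GTPγS (0.2 nM) binding was measured over 90 min at room temperature on human APJ-expressing CHO membranes with bead capture, in buffer containing 3 μM GDP, 200 mM NaCl and 5 mM MgCl2 (pH 7.5). Excess unlabelled GTPγS (100 μM) gave nonspecific signal; EC50 from non-linear fits.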
# Chain of human APJ receptor (P35414 whole entry): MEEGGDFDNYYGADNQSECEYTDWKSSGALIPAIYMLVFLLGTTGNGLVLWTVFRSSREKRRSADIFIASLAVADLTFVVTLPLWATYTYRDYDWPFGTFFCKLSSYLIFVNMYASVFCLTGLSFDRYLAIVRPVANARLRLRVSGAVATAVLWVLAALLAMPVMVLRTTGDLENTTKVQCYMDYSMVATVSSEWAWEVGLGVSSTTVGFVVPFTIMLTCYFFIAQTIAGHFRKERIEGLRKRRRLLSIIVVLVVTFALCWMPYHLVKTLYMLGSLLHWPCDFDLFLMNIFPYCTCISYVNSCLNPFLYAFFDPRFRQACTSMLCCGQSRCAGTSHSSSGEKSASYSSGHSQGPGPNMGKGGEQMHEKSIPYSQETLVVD
row,Compound,EC50
1,"COc1cccc(OC)c1-n1c(NS(=O)(=O)[C@@H](C)[C@H](OC)c2ncc(Cl)cn2)nnc1[C@H]1CCO[C@H]1C (single isomer, unassigned) [Example 116.0, (1R,2S)-1-(5-chloropyrimidin-2-yl)-N-(4-(2,6-dimethoxyphenyl)-5-((2R,3S)-2-methyltetrahydrofuran-3-yl)-4H-1,2,4-triazol-3-yl)-1-methoxypropane-2-sulfonamide or (1R,2S)-1-(5-chloropyrimidin-2-yl)-N-(4-(2,6-dimethoxyphenyl)-5-((2S,3R)-2-methyltetrahydrofuran-3-yl)-4H-1,2,4-triazol-3-yl)-1-methoxypropane-2-sulfonamide]",190 nM
2,"(1S,2S)-1-(5-chloropyrimidin-2-yl)-1-isopropoxy-N-(4-(1-(methoxymethyl)cyclopropyl)-5-((R)-tetrahydrofuran-3-yl)-4H-1,2,4-triazol-3-yl)propane-2-sulfonamide or (1S,2S)-1-(5-chloropyrimidin-2-yl)-1-isopropoxy-N-(4-(1-(methoxymethyl)cyclopropyl)-5-((S)-tetrahydrofuran-3-yl)-4H-1,2,4-triazol-3-yl)propane-2-sulfonamide [Example 320.0]",45 nM
3,"(1R,2S)-N-(5-((R)-2,3-dihydrobenzofuran-3-yl)-4-(2,6-dimethoxyphenyl)-4H-1,2,4-triazol-3-yl)-1-methoxy-1-(5-methylpyrimidin-2-yl)propane-2-sulfonamide or (1R,2S)-N-(5-((S)-2,3-dihydrobenzofuran-3-yl)-4-(2,6-dimethoxyphenyl)-4H-1,2,4-triazol-3-yl)-1-methoxy-1-(5-methylpyrimidin-2-yl)propane-2-sulfonamide [Example 239.0]",33 nM
4,"COc1cnc([C@@H](C)[C@H](C)S(=O)(=O)Nc2nnc([C@@H]3COCCO3)n2-c2c(OC)cccc2OC)nc1 (single isomer, unassigned) [Example 176.0, (2S,3R)-N-(4-(2,6-dimethoxyphenyl)-5-((2R)-1,4-dioxan-2-yl)-4H-1,2,4-triazol-3-yl)-3-(5-methoxy-2-pyrimidinyl)-2-butanesulfonamide or (2S,3R)-N-(4-(2,6-dimethoxyphenyl)-5-((2S)-1,4-dioxan-2-yl)-4H-1,2,4-triazol-3-yl)-3-(5-methoxy-2-pyrimidinyl)-2-butanesulfonamide]",34 nM
5,"COc1ncnc(OC)c1-n1c(NS(=O)(=O)[C@@H](C)[C@H](C)c2cnc(C)cn2)nnc1[C@H]1CCCO1 (single isomer, unassigned) [Example 105.0, (2S,3R)-N-(4-(4,6-dimethoxypyrimidin-5-yl)-5-((S)-tetrahydrofuran-2-yl)-4H-1,2,4-triazol-3-yl)-3-(5-methylpyrazin-2-yl)butane-2-sulfonamide or (2S,3R)-N-(4-(4,6-dimethoxypyrimidin-5-yl)-5-((R)-tetrahydrofuran-2-yl)-4H-1,2,4-triazol-3-yl)-3-(5-methylpyrazin-2-yl)butane-2-sulfonamide]",88 nM
6,"(1R,2S)-1-(5-chloropyrimidin-2-yl)-1-methoxy-N-(5-((2S,5S)-5-methyltetrahydrofuran-2-yl)-4-(tetrahydro-2H-pyran-4-yl)-4H-1,2,4-triazol-3-yl)propane-2-sulfonamide or (1R,2S)-1-(5-chloropyrimidin-2-yl)-1-methoxy-N-(5-((2R,5R)-5-methyltetrahydrofuran-2-yl)-4-(tetrahydro-2H-pyran-4-yl)-4H-1,2,4-triazol-3-yl)propane-2-sulfonamide [Example 226.0]",1400 nM
7,"(1R,2S)-N-(4-(1,3-dimethoxy-2-propanyl)-5-((2R,5R)-5-methyltetrahydro-2-furanyl)-4H-1,2,4-triazol-3-yl)-1-methoxy-1-(5-methoxy-2-pyrazinyl)-2-propanesulfonamide or (1R,2S)-N-(4-(1,3-dimethoxy-2-propanyl)-5-((2S,5S)-5-methyltetrahydro-2-furanyl)-4H-1,2,4-triazol-3-yl)-1-methoxy-1-(5-methoxy-2-pyrazinyl)-2-propanesulfonamide [Example 379.0]",21 nM
8,"COc1cccc(OC)c1-n1c(NS(=O)(=O)CCc2ccc(F)cc2C#N)nnc1[C@@H]1CCCO1 (mixture of isomers) [Example 146.0, (S)-2-(2-Cyano-4-fluorophenyl)-N-(4-(2,6-dimethoxyphenyl)-5-(tetrahydrofuran-2-yl)-4H-1,2,4-triazol-3-yl)ethanesulfonamide and (R)-2-(2-cyano-4-fluorophenyl)-N-(4-(2,6-dimethoxyphenyl)-5-(tetrahydrofuran-2-yl)-4H-1,2,4-triazol-3-yl)ethanesulfonamide]",450 nM
9,"C[C@H](c1ncc(Cl)cn1)[C@H](C)S(=O)(=O)Nc1nnc([C@@H]2COCCO2)n1C1CCOCC1 (single isomer, unassigned) [Example 245.0, (2S,3R)-3-(5-chloro-2-pyrimidinyl)-N-(5-((2R)-1,4-dioxan-2-yl)-4-(tetrahydro-2H-pyran-4-yl)-4H-1,2,4-triazol-3-yl)-2-butanesulfonamide or (2S,3R)-3-(5-chloro-2-pyrimidinyl)-N-(5-((2S)-1,4-dioxan-2-yl)-4-(tetrahydro-2H-pyran-4-yl)-4H-1,2,4-triazol-3-yl)-2-butanesulfonamide]",620 nM
10,"COc1cccc(OC)c1-n1c(NS(=O)(=O)[C@@H](C)[C@@H](OC(C)C)c2ncc(Cl)cn2)nnc1[C@H]1CCOC1 (single isomer, unassigned) [Example 282.0, (1S,2S)-1-(5-chloropyrimidin-2-yl)-N-(4-(2,6-dimethoxyphenyl)-5-((R)-tetrahydrofuran-3-yl)-4H-1,2,4-triazol-3-yl)-1-isopropoxypropane-2-sulfonamide or (1S,25)-1-(5-chloropyrimidin-2-yl)-N-(4-(2,6-dimethoxyphenyl)-5-((S)-tetrahydrofuran-3-yl)-4H-1,2,4-triazol-3-yl)-1-isopropoxypropane-2-sulfonamide]",1.6 nM
11,"(1S,2S)-1-isopropoxy-1-(5-methylpyrazin-2-yl)-N-(4-(tetrahydro-2H-pyran-4-yl)-5-((R)-tetrahydrofuran-2-yl)-4H-1,2,4-triazol-3-yl)propane-2-sulfonamide or (1S,2S)-1-isopropoxy-1-(5-methylpyrazin-2-yl)-N-(4-(tetrahydro-2H-pyran-4-yl)-5-((S)-tetrahydrofuran-2-yl)-4H-1,2,4-triazol-3-yl)propane-2-sulfonamide [Example 261.0]",150 nM
12,"(1R,2S)-1-(5-chloro-2-pyrimidinyl)-N-(4-(1,3-dimethoxy-2-propanyl)-5-((2S,5S)-5-methyltetrahydro-2-furanyl)-4H-1,2,4-triazol-3-yl)-1-methoxy-2-propanesulfonamide or (1R,2S)-1-(5-chloro-2-pyrimidinyl)-N-(4-(1,3-dimethoxy-2-propanyl)-5-((2R,5R)-5-methyltetrahydro-2-furanyl)-4H-1,2,4-triazol-3-yl)-1-methoxy-2-propanesulfonamide [Example 252.0]",250 nM
13,"COc1cccc(OC)c1-n1c(NS(=O)(=O)[C@@H](C)[C@@H](OC(C)C)c2ncc(C)cn2)nnc1[C@H]1CCOC1 (single isomer, unassigned) [Example 100.0, (1S,2S)-N-(4-(2,6-dimethoxyphenyl)-5-((R)-tetrahydrofuran-3-yl)-4H-1,2,4-triazol-3-yl)-1-isopropoxy-1-(5-methylpyrimidin-2-yl)propane-2-sulfonamide or (1S,2S)-N-(4-(2,6-dimethoxyphenyl)-5-((S)-tetrahydrofuran-3-yl)-4H-1,2,4-triazol-3-yl)-1-isopropoxy-1-(5-methylpyrimidin-2-yl)propane-2-sulfonamide]",24 nM
14,"COc1ncnc(OC)c1-n1c(NS(=O)(=O)[C@@H](C)[C@@H](OC(C)C)c2ncc(C)cn2)nnc1[C@H]1CCCO1 (single isomer, unassigned) [Example 95.0, (1S,2S)-N-(4-(4,6-dimethoxypyrimidm-5-yl)-5-((S)-tetrahydrofuran-2-yl)-4H-1,2,4-triazol-3-yl)-1-isopropoxy-1-(5-methylpyrimidin-2-yl)propane-2-sulfonamide or (1S,2S)-N-(4-(4,6-dimethoxypyrimidin-5-yl)-5-((R)-tetrahydrofuran-2-yl)-4H-1,2,4-triazol-3-yl)-1-isopropoxy-1-(5-methylpyrimidin-2-yl)propane-2-sulfonamide]",15 nM
15,"COc1cccc(OC)c1-n1c(NS(=O)(=O)CCc2ncc(Cl)cn2)nnc1[C@H]1CCOC1 (single isomer, unassigned) [Example 390.0]",330 nM
16,"(1R,2S)-1-(5-chloro-2-pyrimidinyl)-N-(4-(1,3-dimethoxy-2-propanyl)-5-((3S)-tetrahydro-3-furanyl)-4H-1,2,4-triazol-3-yl)-1-methoxy-2-propanesulfonamide or (1R,2S)-1-(5-chloro-2-pyrimidinyl)-N-(4-(1,3-dimethoxy-2-propanyl)-5-((3R)-tetrahydro-3-furanyl)-4H-1,2,4-triazol-3-yl)-1-methoxy-2-propanesulfonamide [Example 306.0]",900 nM
17,"(1S,2S)-N-(4-(4,6-dimethoxypyrimidin-5-yl)-5-((R)-tetrahydrofuran-3-yl)-4H-1,2,4-triazol-3-yl)-1-isopropoxy-1-(5-methylpyridin-2-yl)propane-2-sulfonamide or (1S,2S)-N-(4-(4,6-dimethoxypyrimidin-5-yl)-5-((S)-tetrahydrofuran-3-yl)-4H-1,2,4-triazol-3-yl)-1-isopropoxy-1-(5-methylpyridin-2-yl)propane-2-sulfonamide [Example 324.0]",380 nM
